≈ marks a conversion by molar mass, not a printed value.
What was measured:
Test in all cases: in vitro antibacterial activity (MIC), agar dilution
Type in all cases: cell-based
[1] = test system: Staphylococcus aureus NCTC10649M; conditions: organism code EE; BHI agar, 35-37° C., 20 to 24 hours; unit assumed
Summary of the method: (§1)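 Agar dilution in BHI agar, twelve successive compound dilutions. Inoculum 1:100, or 1:10 for slow-growing strains (e.g. Streptococcus), replicator-spotted. Read by eye; MIC = lowest concentration with no growth, slight haze or sparsely isolated colonies relative to growth control.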

[2] = test system: Haemophilis Influenzae DILL AMP R; conditions: organism code WW; BHI agar, 35-37° C., 20 to 24 hours; unit assumed
Summary of the method: as §1

Escherichia coli SS = conditions: organism code RR; BHI agar, 35-37° C., 20 to 24 hours; unit assumed
Summary of the method: as §1

[3] = test system: Staphylococcus aureus A-5278; conditions: organism code CC; BHI agar, 35-37° C., 20 to 24 hours; unit assumed
Summary of the method: as §1

Candida albicans CCH 442 = conditions: organism code TT; BHI agar, 35-37° C., 20 to 24 hours; unit assumed
Summary of the method: as §1

[4] = test system: Micrococcus luteus ATCC 4698; conditions: organism code PP; BHI agar, 35-37° C., 20 to 24 hours; unit assumed
Summary of the method: (§2)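 Plates of BHI agar were prepared with twelve aqueous dilutions of compound, then inoculated at 1:100 dilution, or 1:10 for slow growers like Streptococcus. After incubation they were inspected, and the lowest concentration yielding no growth, slight haze or sparse colonies was recorded as MIC.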

[5] = test system: Staphylococcus epidermidis 3519; conditions: organism code HH; BHI agar, 35-37° C., 20 to 24 hours; unit assumed
Summary of the method: as §1

[6] = test system: Streptococcus Pneumonia GYR 1171; conditions: organism code YY; BHI agar, 35-37° C., 20 to 24 hours; unit assumed
Summary of the method: as §1

Escherichia coli JUHL = conditions: organism code QQ; BHI agar, 35-37° C., 20 to 24 hours; unit assumed
Summary of the method: as §1

[7] = test system: Staphylococcus aureus 1775; conditions: organism code GG; BHI agar, 35-37° C., 20 to 24 hours; unit assumed
Summary of the method: as §1

[8] = test system: Streptococcus pyogenes PIU 2548; conditions: organism code NN; BHI agar, 35-37° C., 20 to 24 hours; unit assumed
Summary of the method: as §1

[9] = test system: Streptococcus pyogenes 930; conditions: organism code MM; BHI agar, 35-37° C., 20 to 24 hours; unit assumed
Summary of the method: as §1

[10] = test system: Staphylococcus aureus ATCC 6538P; conditions: organism code AA; BHI agar, 35-37° C., 20 to 24 hours; unit assumed
Summary of the method: as §1

[11] = test system: Streptococcus pyogenes EES61; conditions: organism code LL; BHI agar, 35-37° C., 20 to 24 hours; unit assumed
Summary of the method: as §1

[12] = test system: Streptococcus bovis A-5169; conditions: organism code JJ; BHI agar, 35-37° C., 20 to 24 hours; unit assumed
Summary of the method: as §1

[13] = test system: Streptococcus agalactiae CMX 508; conditions: organism code KK; BHI agar, 35-37° C., 20 to 24 hours; unit assumed
Summary of the method: as §1

[14] = test system: Staphylococcus aureus A5177; conditions: organism code BB; BHI agar, 35-37° C., 20 to 24 hours; unit assumed
Summary of the method: as §1

[15] = test system: Streptococcus Pneumonia ATCC6303; conditions: organism code XX; BHI agar, 35-37° C., 20 to 24 hours; unit assumed
Summary of the method: as §1

[16] = test system: Micrococcus luteus ATCC 9341; conditions: organism code OO; BHI agar, 35-37° C., 20 to 24 hours; unit assumed
Summary of the method: as §2

[17] = test system: Staphylococcus aureus CMX 642A; conditions: organism code DD; BHI agar, 35-37° C., 20 to 24 hours; unit assumed
Summary of the method: as §1

[18] = test system: Mycobacterium smegmatis ATCC 114; conditions: organism code UU; BHI agar, 35-37° C., 20 to 24 hours; unit assumed
Summary of the method: as §1

[19] = test system: Staphylococcus aureus CMX 553; conditions: organism code FF; BHI agar, 35-37° C., 20 to 24 hours; unit assumed
Summary of the method: as §1

Escherichia coli DC-2 = conditions: organism code SS; BHI agar, 35-37° C., 20 to 24 hours; unit assumed
Summary of the method: as §1

[20] = test system: Streptococcus Pneumonia 5979; conditions: organism code ZZ; BHI agar, 35-37° C., 20 to 24 hours; unit assumed
Summary of the method: as §1

[21] = test system: Nocardia Asteroides ATCC9970; conditions: organism code VV; BHI agar, 35-37° C., 20 to 24 hours; unit assumed
Summary of the method: as §1

[22] = test system: Streptococcus Pneumonia 5649; conditions: organism code ZZA; BHI agar, 35-37° C., 20 to 24 hours; unit assumed
Summary of the method: as §1

[23] = test system: Enterococcus faecium ATCC 8043; conditions: organism code II; BHI agar, 35-37° C., 20 to 24 hours; unit assumed
Summary of the method: as §1

| Compound | MIC [1] | MIC [2] | MIC (Escherichia coli SS) | MIC [3] | MIC (Candida albicans CCH 442) | MIC [4] | MIC [5] | MIC [6] | MIC (Escherichia coli JUHL) | MIC [7] | MIC [8] | MIC [9] | MIC [10] | MIC [11] | MIC [12] | MIC [13] | MIC [14] | MIC [15] | MIC [16] | MIC [17] | also measured |
| --- | --- | --- | --- | --- | --- | --- | --- | --- | --- | --- | --- | --- | --- | --- | --- | --- | --- | --- | --- | --- | --- |
| CC[C@H]1OC(=O)[C@H](C)C(=O)[C@H](C)[C@@H](O[C@@H]2O[C@H](C)C[C@H](N(C)C)[C@H]2O)[C@](C)(OCC#Cc2ccc(-c3cncs3)s2)C[C@@H](C)C(=O)[C@H](C)[C@H]2NC(=O)O[C@@]21C [Example 29] | 0.02 µg/mL (≈ 0.0249 µM) | 2 µg/mL (≈ 2.49 µM) | 0.1 µg/mL (≈ 0.125 µM) | > 100 µg/mL | > 100 µg/mL | 0.05 µg/mL (≈ 0.0623 µM) | 0.05 µg/mL (≈ 0.0623 µM) | ≤ 0.004 µg/mL | 25 µg/mL (≈ 31.2 µM) | > 100 µg/mL | 0.05 µg/mL (≈ 0.0623 µM) | 3.1 µg/mL (≈ 3.87 µM) | 0.05 µg/mL (≈ 0.0623 µM) | 0.01 µg/mL (≈ 0.0125 µM) | ≤ 0.005 µg/mL | 0.01 µg/mL (≈ 0.0125 µM) | 0.05 µg/mL (≈ 0.0623 µM) | ≤ 0.004 µg/mL | ≤ 0.005 µg/mL | 0.05 µg/mL (≈ 0.0623 µM) | MIC [18]: 0.39 µg/mL (≈ 0.486 µM); MIC [19]: 0.02 µg/mL (≈ 0.0249 µM); MIC (Escherichia coli DC-2): 50 µg/mL (≈ 62.3 µM); MIC [20]: 1 µg/mL (≈ 1.25 µM); MIC [21]: ≤ 0.005 µg/mL; MIC [22]: 0.25 µg/mL (≈ 0.312 µM); MIC [23]: 0.01 µg/mL (≈ 0.0125 µM) |
| CC[C@H]1OC(=O)[C@H](C)C(=O)[C@H](C)[C@@H](O[C@@H]2O[C@H](C)C[C@H](N(C)C)[C@H]2O)[C@](C)(OC/C=C/c2cncc(-c3cncs3)c2)C[C@@H](C)C(=O)[C@H](C)[C@H]2NC(=O)O[C@@]21C [Example 52] | 0.05 µg/mL (≈ 0.0626 µM) | 2 µg/mL (≈ 2.5 µM) | 0.39 µg/mL (≈ 0.488 µM) | > 100 µg/mL | > 100 µg/mL | 0.2 µg/mL (≈ 0.25 µM) | 0.05 µg/mL (≈ 0.0626 µM) | ≤ 0.004 µg/mL | 100 µg/mL (≈ 125 µM) | > 100 µg/mL | 0.1 µg/mL (≈ 0.125 µM) | 100 µg/mL (≈ 125 µM) | 0.05 µg/mL (≈ 0.0626 µM) | 0.02 µg/mL (≈ 0.025 µM) | 0.01 µg/mL (≈ 0.0125 µM) | ≤ 0.005 µg/mL | 0.05 µg/mL (≈ 0.0626 µM) | ≤ 0.004 µg/mL | 0.01 µg/mL (≈ 0.0125 µM) | 0.05 µg/mL (≈ 0.0626 µM) | MIC [18]: 1.56 µg/mL (≈ 1.95 µM); MIC [19]: 0.05 µg/mL (≈ 0.0626 µM); MIC (Escherichia coli DC-2): 25 µg/mL (≈ 31.3 µM); MIC [20]: > 128 µg/mL; MIC [21]: 0.02 µg/mL (≈ 0.025 µM); MIC [22]: 0.25 µg/mL (≈ 0.313 µM); MIC [23]: 0.01 µg/mL (≈ 0.0125 µM) |
| CC[C@H]1OC(=O)[C@H](C)C(=O)[C@H](C)[C@@H](O[C@@H]2O[C@H](C)C[C@H](N(C)C)[C@H]2O)[C@](C)(OC/C=C/c2cncc(-c3ccco3)c2)C[C@@H](C)C(=O)[C@H](C)[C@H]2NC(=O)O[C@@]21C [Example 50] | 0.1 µg/mL (≈ 0.128 µM) | 2 µg/mL (≈ 2.56 µM) | 0.39 µg/mL (≈ 0.499 µM) | > 100 µg/mL | > 100 µg/mL | 0.1 µg/mL (≈ 0.128 µM) | 0.05 µg/mL (≈ 0.0639 µM) | ≤ 0.004 µg/mL | 25 µg/mL (≈ 32 µM) | > 100 µg/mL | 0.1 µg/mL (≈ 0.128 µM) | 12.5 µg/mL (≈ 16 µM) | 0.05 µg/mL (≈ 0.0639 µM) | 0.02 µg/mL (≈ 0.0256 µM) | 0.01 µg/mL (≈ 0.0128 µM) | 0.01 µg/mL (≈ 0.0128 µM) | 0.02 µg/mL (≈ 0.0256 µM) | ≤ 0.004 µg/mL | 0.01 µg/mL (≈ 0.0128 µM) | 0.05 µg/mL (≈ 0.0639 µM) | MIC [18]: 0.39 µg/mL (≈ 0.499 µM); MIC [19]: 0.02 µg/mL (≈ 0.0256 µM); MIC (Escherichia coli DC-2): 50 µg/mL (≈ 63.9 µM); MIC [20]: 128 µg/mL (≈ 164 µM); MIC [21]: 0.05 µg/mL (≈ 0.0639 µM); MIC [22]: 0.12 µg/mL (≈ 0.153 µM); MIC [23]: 0.05 µg/mL (≈ 0.0639 µM) |

Source: patent US6054435A, “6-O-substituted macrolides having antibacterial activity” (priority 1999, dated 2000)
